In article PMC6271950, “LC-MS/MS Determination and Pharmacokinetic Study of Dehydrocorydaline in Rat Plasma after Oral Administration of Dehydrocorydaline and Corydalis yanhusuo Extract” (Molecules, 2014):

Tests used:
[1] = system: cytochrome P450 3A4; parameters: method as in PMID 16133554; conditions: cited from earlier work
[2] = parameters: method as in PMID 16956957; conditions: 1 h after oral administration, in situ intestinal loop; cited from earlier work
[3] = system: P-glycoprotein; parameters: method as in PMID 12530470, PMID 12434406; conditions: efflux in Caco-2 cells and the liver; cited from earlier work
[4] = Plasma pharmacokinetics of DHC after oral administration of pure DHC or EFY; type: in vivo, Sprague-Dawley rats; conditions: Sprague-Dawley, DHC in rat plasma, equivalent dose of 97.5 mg/kg DHC (EFY 483 mg/kg), n = 5, mean ± SD
Procedure: DHC is the most abundant quaternary protoberberine-type alkaloid in EFY and has clear cardiovascular pharmacological activity. A fully validated LC-ESI-MS/MS method was developed and was successfully applied to a pharmacokinetic study of DHC when given in the two different dosage forms (EFY and pure compound) via oral administration in rats. The doses of DHC and EFY were 97.5 mg/kg and 483 mg/kg (equivalent to 97.5 mg/kg DHC), respectively. The mean plasma concentration-time profiles of DHC after the two doses are illustrated in Figure 5 and the estimated pharmacokinetic parameters are presented in Table 5.
For pharmacokinetics study, the rats were divided into two groups (n = 5 per group). Doses of 97.5 mg/kg of DHC or 483 mg/kg of EFY (equivalent to 97.5 mg/kg DHC, 20.19% DHC in EFY) were all gavage administrated. Blood samples (500 μL) were withdrawn from the oculi chorioideae vein into heparinized tubes before dosing and subsequently at 15, 30 and 45 min and then at 1, 2, 4, 6, 8, 12 and 24 h following initial administration. After 1 h and 8 h, 2 mL of normal saline was injected into the caudal vein to compensate for blood loss. After centrifuging at 4000 rpm for 10 min, plasma samples were obtained and frozen at −20 °C until analysis.
A 200 μL aliquot of plasma was vortex mixed for 3 min with 200 μL of water and 50 μL of IS (800 ng/mL). After centrifugation at 9000 rpm for 10 min, all the supernatant was loaded onto an Oasis HLB cartridge (Waters, Milford, MA, USA), which was pre-conditioned with 1 mL of methanol followed by 1 mL of deionized water. The loaded-cartridge was sequentially washed with 1 mL of water and 1 mL of 20% methanol. The analytes were then eluted with 1 mL of methanol in water containing 2% formic acid. The collected eluate was evaporated to dryness at 40 °C under a gentle stream of nitrogen. The residue was reconstituted in 150 μL of 10% acetonitrile, and 30 μL of the resulting sample was injected into the LC-MS/MS system for assay. Bile and urine samples were all processed in a similar manner as the plasma samples.
An Agilent 1100 system (Palo Alto, CA, USA) equipped with a vacuum degasser, a quaternary pump, and an auto-sampler were used. Chromatographic separation was achieved on an Atlantis T3 column (100 mm × 2.1 mm, 5 μm; Waters, Milford, MA, USA), which was eluted with a mobile phase of acetonitrile and water (containing 0.8% formic acid and 10 mM ammonium acetate) (28:72, v/v). The mobile phase was delivered at a flow-rate of 0.25 mL/min and 40% of the eluate was introduced into an API 3000 triple-quadrupole mass spectrometer (Applied Biosystems MDS SCIEX, Concord, ON, Canada) equipped with a TurboIonSpray electrospray ionization (ESI) source. Detection was performed using positive-ion electrospray ionization in multiple reaction monitoring (MRM) modes. The transitions from molecular ion to dominant product ion m/z 366→351[M−CH3] and m/z 348→332[M−CH3−H] [26, 27, 28] were monitored for DHC and IS, respectively. The optimized working parameters for mass detection were as follows. The nebulizer, curtain, and collision-activated dissociation gases were set at 11, 7 and 11 (instrument units), respectively. The TurboIonSpray voltage and temperature were set at 4.5 kV and 400 °C, respectively. All data acquisition was performed using Analyst software (v1.4, AB MDS SCIEX).
Pharmacokinetic parameters were established from the plasma concentration–time data using non-compartmental analysis. The terminal elimination rate constant (Ke) was determined by linear regression of the terminal portion of the plasma concentration-time data. The elimination half-life (t1/2) was calculated using the expression: t1/2 = ln2/Ke(2) The area under the curve (AUC) for the plasma concentration-time trace from zero to the last plasma drug concentration (AUC0–t) was calculated using the trapezoidal rule. […]

[5] = Urinary cumulative excretion of DHC after a single oral dose; type: in vivo, Sprague-Dawley rats; conditions: rat, single oral dose 97.5 mg/kg, over 96 h
Procedure: (§1) The cumulative excretion of DHC in bile and urine after a single i.g. dose of DHC (97.5 mg/kg) was determined. […] However, the urinary cumulative excretion of DHC was little. The mean accumulated amount of DHC in urine over 96 h was 0.17% ± 0.13% of dose. […] There might be a huge “first pass” effect in liver after oral administration and account for the trace plasma concentration.
For urinary excretion study, four rats were used. DHC was administered as described above. The animals were housed in stainless steel metabolic cages with free access to tap water. Urine was collected at 0–4, 4–8, 8–12, 12–24, 24–36, 36–60, 60–84 and 84–96 h post-dosing and kept at −20 °C after the volume of each collection was recorded.
A 200 μL aliquot of plasma was vortex mixed for 3 min with 200 μL of water and 50 μL of IS (800 ng/mL). After centrifugation at 9000 rpm for 10 min, all the supernatant was loaded onto an Oasis HLB cartridge (Waters, Milford, MA, USA), which was pre-conditioned with 1 mL of methanol followed by 1 mL of deionized water. The loaded-cartridge was sequentially washed with 1 mL of water and 1 mL of 20% methanol. The analytes were then eluted with 1 mL of methanol in water containing 2% formic acid. […]
(§2) An Agilent 1100 system (Palo Alto, CA, USA) equipped with a vacuum degasser, a quaternary pump, and an auto-sampler were used. […] [26, 27, 28] were monitored for DHC and IS, respectively. […]

[6] = Stability of DHC in rat plasma (QC samples); type: in vitro ADME; conditions: for Cdec (mean ± S.D.): n = 6
Procedure: This is evidenced by the fact that the responses varied no more than ±10% over 24 h at the QC concentrations. After storage at ambient temperature for 12 h, the concentration of DHC in the plasma deviated less than ±13% from those in freshly-spiked plasma (Table 3).
The stability of DHC in rat plasma was evaluated under conditions that mimicked those likely to be encountered during sample storage and analytical processing. Six replicates of QC samples were analyzed for DHC. The QC samples were frozen and stored at −20 °C for a week. The concentration variation of the DHC in the prepared QC samples was detected after (i) three cycles of freezing and thawing, (ii) placement in an auto-sampler at 4 °C for 24 h, and (iii) storing at ambient temperature for 12 h.

[7] = Biliary cumulative excretion of unchanged DHC after a single oral dose; type: in vivo, Sprague-Dawley rats; conditions: rat, single oral dose 97.5 mg/kg
Procedure: as §1
For biliary excretion study, four rats were light anesthetized by ether and a PE-10 cannula was implanted into the bile duct to collect bile. A single dose of DHC was administered as described above. Bile samples were collected at 0–2, 2−4, 4−6, 6−8, 8−10, 10−24 and 24−48 h post-dosing and kept at −20 °C after the volume of each collection was recorded.
A 200 μL aliquot of plasma was vortex mixed for 3 min with 200 μL of water and 50 μL of IS (800 ng/mL). After centrifugation at 9000 rpm for 10 min, all the supernatant was loaded onto an Oasis HLB cartridge (Waters, Milford, MA, USA), which was pre-conditioned with 1 mL of methanol followed by 1 mL of deionized water. The loaded-cartridge was sequentially washed with 1 mL of water and 1 mL of 20% methanol. […]
as §2

[8] = after three freeze-thaw cycles, Cnom 1.25 ng/mL
[9] = after three freeze-thaw cycles, Cnom 25 ng/mL
[10] = after three freeze-thaw cycles, Cnom 250 ng/mL
[11] = postpreparative stability (24 h, auto-sampler 4 °C), Cnom 1.25 ng/mL
[12] = postpreparative stability (24 h, auto-sampler 4 °C), Cnom 25 ng/mL
[13] = postpreparative stability (24 h, auto-sampler 4 °C), Cnom 250 ng/mL
[14] = short-term temperature stability (12 h, ambient), Cnom 1.25 ng/mL
[15] = short-term temperature stability (12 h, ambient), Cnom 25 ng/mL
[16] = short-term temperature stability (12 h, ambient), Cnom 250 ng/mL

For `COc1ccc2cc3[n+](cc2c1OC)CCc1cc2c(cc1-3)OCO2` [berberine], the “cytochrome P450 3A4 inhibition” value [1] is listed as “weak cytochrome P450 3A4 inhibitor”, the absorbed amount [2] is listed as 33.6 % of the given dose and the P-glycoprotein substrate [3] is listed as “substrate of P-glycoprotein”.
`COc1cc2c(cc1OC)-c1c(C)c3ccc(OC)c(OC)c3c[n+]1CC2` [DHC, dehydrocorydaline] gave an AUC(0-inf) [4] of 59.1 ± 11.5 ng·h/mL, an AUC(0-t) [4] of 52.4 ± 12.8 ng·h/mL and a Cmax [4] of 9.4 ± 4.18 ng/mL. It also gave a Tmax [4] of 1 h, a half-life [4] of 7.93 ± 1.34 h and a k el ([4]; read-out: Ke (converted)) of 2.5e-05 s⁻¹. The “mean accumulated amount of DHC in urine” value [5] was 0.17% ± 0.13%, the “variation in the concentration from nominal concentration” value ([6]; after three cycles of freezing and thawing, rat plasma) was ≤ 15% and the “Relative Error” value [6, 8] was −0.27%. The “Cdec (mean ± S.D.)” value [6, 8] was 1.25 ± 0.1 ng/mL, the “Relative Error” value [6, 9] was 10% and the “Cdec (mean ± S.D.)” value [6, 9] was 27.5 ± 0.87 ng/mL. The “Relative Error” value [6, 10] was 9.07%, the “Cdec (mean ± S.D.)” value [6, 10] was 272.67 ± 8.14 ng/mL and the “Relative Error” value [6, 11] was −5.47%. The “Cdec (mean ± S.D.)” value [6, 11] was 1.18 ± 0.06 ng/mL, the “Relative Error” value [6, 12] was 4.8% and the “Cdec (mean ± S.D.)” value [6, 12] was 26.2 ± 0.86 ng/mL. The “Relative Error” value [6, 13] was 8.14%, the “Cdec (mean ± S.D.)” value [6, 13] was 270.33 ± 9.42 ng/mL and the variation of responses ([6]; processed samples in auto-sampler at 4 °C over 24 h, QC concentrations) was ≤ 10%. For the same molecule, the “Relative Error” value [6, 14] was −3.87%, the “Cdec (mean ± S.D.)” value [6, 14] was 1.2 ± 0.1 ng/mL and the “Relative Error” value [6, 15] was −12.13%. For the same molecule, the “Cdec (mean ± S.D.)” value [6, 15] was 21.97 ± 0.51 ng/mL, the “Relative Error” value [6, 16] was −7.73% and the “Cdec (mean ± S.D.)” value [6, 16] was 230.67 ± 15.96 ng/mL. The “deviation of concentration from freshly-spiked plasma” value ([6]; storage at ambient temperature for 12 h, rat plasma) was < 13%, the “mean accumulated amount of DHC in bile” value ([7]; in 2 h) was 12.2% ± 7.38% and the “total biliary excretion of unchanged DHC” value ([7]; up to 48 h) was 60.04% ± 24.66%.
